The subject of test [1] is M. tuberculosis H37Rv. Briefly: M. tuberculosis H37Rv MIC assay. The test is classed as cell-based, Mycobacterium tuberculosis. As to conditions: Mtb H37Rv; for MIC50 –Fe: iron-deficient; for MIC50 +Fe: iron-replete.
Test [2] has as its target T1, MbtA (Mycobacterium tuberculosis, UniProt P71716). The format is biochemical. As to conditions: read-out: Ki^app MbtA; 250 µM salicylic acid, 10 mM ATP, 1 mM PPi, 7 nM MbtA.
The target in test [3] is T1, MbtA. The test is classed as binding.

Molecules are shown by their SMILES. A value given as a limit tells only on which side of the number the result lay.

T1 sequence (P71716 whole entry): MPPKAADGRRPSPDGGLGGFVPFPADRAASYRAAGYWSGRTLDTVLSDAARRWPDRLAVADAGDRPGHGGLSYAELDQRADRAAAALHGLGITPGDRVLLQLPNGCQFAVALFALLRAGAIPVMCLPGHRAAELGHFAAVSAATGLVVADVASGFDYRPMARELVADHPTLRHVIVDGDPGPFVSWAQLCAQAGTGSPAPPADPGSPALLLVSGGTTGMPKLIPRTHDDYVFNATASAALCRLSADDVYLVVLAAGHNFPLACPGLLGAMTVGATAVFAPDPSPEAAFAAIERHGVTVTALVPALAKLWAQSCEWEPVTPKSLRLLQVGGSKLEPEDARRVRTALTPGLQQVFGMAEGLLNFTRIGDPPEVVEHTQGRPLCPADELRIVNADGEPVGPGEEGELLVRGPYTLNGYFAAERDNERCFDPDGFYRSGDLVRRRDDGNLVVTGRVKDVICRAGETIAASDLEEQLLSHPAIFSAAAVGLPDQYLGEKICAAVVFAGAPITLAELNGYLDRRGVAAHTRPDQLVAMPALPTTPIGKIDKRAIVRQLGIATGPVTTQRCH

In the case of `Nc1ncnc2c1ncn2[C@@H]1O[C@H](CNS(=O)(=O)c2coc3ccccc3c2=O)[C@@H](O)[C@H]1O` [Compound 1, 5′-Amino-5′-N-[(chromon-3-yl)sulfonyl]-5′-deoxy-adenosine], in test [1], the “MIC50 –Fe” value is reported as >50 µM and the “MIC50 +Fe” value is listed as >50 µM.

Take `Nc1ncnc2c1ncn2[C@@H]1O[C@H](CNS(=O)(=O)c2c[nH]c3ccccc3c2=O)[C@@H](O)[C@H]1O` [Compound 2, 5′-Amino-5′-deoxy-5′-N-[(quinol-4-on-3-yl)sulfonyl]adenosine]: in test [1], the “MIC50 –Fe” value is >50 µM and the “MIC50 +Fe” value is reported as >50 µM. In addition, the Ki in test [2] was 120 ± 20 nM.

For the compound `Nc1ncnc2c1ncn2[C@@H]1O[C@H](CNS(=O)(=O)c2coc3c(O)cccc3c2=O)[C@@H](O)[C@H]1O` [Compound 4, 5′-Amino-5′-deoxy-5′-N-[(8-hydroxychromon-3-yl)sulfonyl]adenosine], the “fold loss of potency (KD, MbtA) relative to chromone 1” value in test [3] (FP assay) is 80 fold. For the same compound, in test [1], the “MIC50 –Fe” value is reported as >50 µM and the “MIC50 +Fe” value was >50 µM.

As for `Nc1ncnc2c1ncn2[C@@H]1O[C@H](CNS(=O)(=O)c2noc3ccccc3c2=O)[C@@H](O)[C@H]1O` [Compound 3, 5′-Amino-5′-deoxy-5′-N-[(4-oxo-4H-benzo[e][1,2]oxazin-3-yl)sulfonyl]adenosine], the “fold increase in potency (KD, MbtA) relative to chromone 1” value in test [3] is on record as ~10 fold. Moreover, in test [1], the “MIC50 –Fe” value was >50 µM and the “MIC50 +Fe” value is listed as >50 µM.
